Patent US20090104235A1, “Method for Producing of a Preparation of a Solid Dmso-Containing Silicone Oil Emulsion for the Binding of Reactive Oxygen Compounds in Human and Animal Bodies” (priority 2005, published 2009)

Legend:
[1] = Case report: morbus Bechterev patient with chronic pain, daily suppository application; format: in vivo, human
Source text: […]: morbus Bechterev for over 10 years. Treatment of chronic pain with Celebrex.

[2] = among humans; N. M. Luerry et al. 1984; cited from earlier work
[3] = DMSO application quantity needed for the same effect; comparison with pure DMSO; format: in vivo, human; conditions: dose of pure DMSO, without silicone emulsion
Method: With standard preparations for the treatment of chronic diseases among humans, DMSO can be prescribed in a dose of up to 1 g/kg of body weight. A toxic effect only occurs among humans when over 1 g/kg DMSO is supplied (N. M. Luerry et al. Drug. Intell. Clin. Pharm. 18, 591 [1984]). Due to the silicone emulsion according to the invention, the same effect is achieved among humans with an application quantity of DMSO of 1 mg/kg of body weight. With the silicone emulsion according to the invention, the quantity of DMSO to be applied is therefore reduced to 1/1000th of the application quantity used to date.

| Compound | side effects ([1]; morbus Bechterev patient) | influence on disease progression ([1]; treatment of chronic pain, morbus Bechterev for over 10 years) | dose at which a toxic effect occurs [2] | pain-relieving and inflammation-restricting effect [3] |
| --- | --- | --- | --- | --- |
| Cc1ccc(-c2cc(C(F)(F)F)nn2-c2ccc(S(N)(=O)=O)cc2)cc1 [Celebrex] | clearly cause difficulty to the patient | can also not be significantly influenced |  |  |
| C[S+](C)[O-] [DMSO, dimethylsulphoxide] |  |  | over 1 g/kg | does not lead to the high pain-relieving and inflammation-restricting effect |
